Reference: ChEMBL document CHEMBL1667782, “Glucose-lowering activity of novel tetrasaccharide glyceroglycolipids from the fruits of Cucurbita moschata” (2011)

What was measured:
Format in all cases: functional
Conditions in all cases: route intraperitoneal
Mus musculus [1] = experiment: Antidiabetic activity in streptozotocin-induced C57/BL6J mouse diabetic model assessed as serum glucose level at 50 mg/kg, ip after 7 days (reference value: 22.65 +/- 6.16 mmol/L)
Mus musculus [2] = experiment: Antidiabetic activity in streptozotocin-induced C57/BL6J mouse diabetic model assessed as serum glucose level at 50 mg/kg, ip after 28 days (reference value: 23.77 +/- 6.12 mmol/L)
Mus musculus [3] = experiment: Antidiabetic activity in streptozotocin-induced C57/BL6J mouse diabetic model assessed as serum glucose level at 50 mg/kg, ip after 14 days (reference value: 22.17 +/- 5.63 mmol/L)
Mus musculus [4] = experiment: Antidiabetic activity in streptozotocin-induced C57/BL6J mouse diabetic model assessed as serum glucose level at 50 mg/kg, ip after 21 days (reference value: 23.89 +/- 6.98 mmol/L)

Compound: CC/C=C\C/C=C\C/C=C\CCCCCCCC(=O)OCC(O)CO[C@@H]1O[C@H](CO[C@@H]2O[C@H](CO[C@@H]3O[C@H](CO[C@@H]4O[C@H](CO)[C@H](O)[C@H](O)[C@H]4O)[C@H](O)[C@H](O)[C@H]3O)[C@H](O)[C@H](O)[C@H]2O)[C@H](O)[C@H](O)[C@H]1O (stereo partly drawn)
- Activity (Mus musculus [1]): 20.89 mmol/L
- Activity (Mus musculus [2]): 14.61 mmol/L
- Activity (Mus musculus [3]): 18.27 mmol/L
- Activity (Mus musculus [4]): 16.36 mmol/L

Compound: CCCCC/C=C\C/C=C\CCCCCCCC(=O)OCC(O)CO[C@@H]1O[C@H](CO[C@@H]2O[C@H](CO[C@@H]3O[C@H](CO[C@@H]4O[C@H](CO)[C@H](O)[C@H](O)[C@H]4O)[C@H](O)[C@H](O)[C@H]3O)[C@H](O)[C@H](O)[C@H]2O)[C@H](O)[C@H](O)[C@H]1O (stereo partly drawn)
- Activity (Mus musculus [1]): 21.47 mmol/L
- Activity (Mus musculus [2]): 15.73 mmol/L
- Activity (Mus musculus [3]): 19.09 mmol/L
- Activity (Mus musculus [4]): 18.17 mmol/L
